According to PubChem BioAssay (NCI):
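Each compound was tested at five concentrations against cells in 96-well plates for 48 hours. GI50 is the concentration that inhibits growth by half. TGI denotes the concentration required for complete inhibition of growth.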

Experiments:
Test in all cases: NCI-60 cell line screen, 48 h
[1] = system: NCI-H522 lung
[2] = system: UO-31 renal
[3] = system: COLO 205 colon
[4] = system: A498 renal
[5] = system: NCI-H226 lung
[6] = system: SF-295 CNS
[7] = system: HOP-62 NSCLC
[8] = system: HCT-15 colon
[9] = system: OVCAR-3 ovarian
[10] = system: UACC-62 melanoma
[11] = system: UACC-257 melanoma
[12] = system: 786-0 renal
[13] = system: HL-60(TB) leukemia
[14] = system: SK-MEL-2 melanoma
[15] = system: LOX IMVI melanoma
[16] = system: MOLT-4 leukemia
[17] = system: SK-MEL-5 melanoma
[18] = system: CAKI-1 renal
[19] = system: HS 578T breast

| Structure (SMILES) | TGI [1] [µM] | TGI [2] [µM] | TGI [3] [µM] | TGI [4] [µM] | TGI [5] [µM] | TGI [6] [µM] | TGI [7] [µM] | TGI [8] [µM] | TGI [9] [µM] | TGI [10] [µM] | TGI [11] [µM] | TGI [12] [µM] | TGI [13] [µM] | TGI [14] [µM] | TGI [15] [µM] | TGI [16] [µM] | TGI [17] [µM] | TGI [18] [µM] | GI50 [14] [µM] | TGI [19] [µM] |
| --- | --- | --- | --- | --- | --- | --- | --- | --- | --- | --- | --- | --- | --- | --- | --- | --- | --- | --- | --- | --- |
| CC1=C(N2CC2)C(=O)C(C)=C(N2CC2)C1=O | 0.423 | 0.353 | 0.822 | 0.403 | 1.18 | 1.47 | 1.09 | 3.31 | 0.658 | 0.466 | 2.77 | 0.622 | 1.04 | 1.39 | 1.38 | 13.5 | 0.363 | 1.37 | – | – |
| Cc1nc2c(n1Cc1ccc(F)cc1)C(=O)c1ccccc1C2=O | 26 | > 100 | > 100 | – | > 100 | > 100 | > 100 | > 100 | 48.6 | 32.3 | > 100 | > 100 | 29.7 | > 100 | > 100 | > 100 | 24.7 | – | – | – |
| COc1ccc(OC)c(CCc2ccccc2CC(=O)O)c1 | > 100 | > 100 | > 100 | > 100 | > 100 | > 100 | – | > 100 | > 100 | > 100 | > 100 | > 100 | > 100 | > 100 | > 100 | > 100 | > 100 | > 100 | – | – |
| N#Cc1c2c(c(Nc3cccc(C(F)(F)F)c3)n3c1nc1ccccc13)CCCC2 | 22.1 | – | > 100 | 94.9 | 63.2 | > 100 | 36.3 | > 100 | > 100 | – | > 100 | 27.9 | – | – | 35.8 | > 100 | > 100 | 82.4 | – | – |
| COc1cc2cnc3c4cc(O)ccc4ccc3c2cc1OC | 70.9 | > 100 | 59.8 | – | > 100 | > 100 | > 100 | > 100 | > 100 | > 100 | > 100 | > 100 | > 100 | 87.2 | > 100 | > 100 | > 100 | > 100 | – | – |
| O=C(OCC1CC(C2(O)CCCCC2)C(=O)O1)c1ccccc1 (stereo unspecified) | > 100 | > 100 | > 100 | > 100 | > 100 | > 100 | > 100 | > 100 | > 100 | > 100 | > 100 | > 100 | – | > 100 | > 100 | > 100 | > 100 | > 100 | – | – |
| O=C(N/N=C/c1cc(Cl)cc(Cl)c1[OH2+])c1ccncc1.O=S(=O)([O-])[O-].[Fe+2] | 7.44 | 31.1 | 40.5 | – | 41.9 | 35.3 | 34.9 | 35.2 | 53.8 | 41 | 41.7 | 53.9 | 2.09 | 94.9 | 0.332 | 40 | > 100 | – | 82.9 | – |
| CCCc1cn2c(/C=N/N=C(N)N)c(-c3ccc([N+](=O)[O-])cc3)nc2s1 | – | – | 1.19 | 10.6 | 3.33 | 2.16 | 3.16 | 2.3 | 0.377 | 3.35 | 3.03 | 1.97 | 2.52 | 3.55 | 3.04 | 0.441 | 54 | 3.1 | – | – |
| O=C(O)C1Cc2[nH]c3ccccc3c2C2CCCC12 (stereo unspecified) | > 100 | > 100 | > 100 | > 100 | > 100 | > 100 | – | > 100 | > 100 | > 100 | > 100 | > 100 | – | > 100 | > 100 | > 100 | > 100 | > 100 | – | – |
| N#C/C(=C\c1ccccc1F)C(=O)c1ccccc1 | > 100 | > 100 | > 100 | > 100 | – | > 100 | > 100 | > 100 | > 100 | > 100 | > 100 | > 100 | > 100 | > 100 | > 100 | > 100 | > 100 | > 100 | – | – |
| C=C1C(=O)O[C@H]2C1C[C@H](O)/C(C)=C/CC[C@@]1(C)O[C@H]21 (stereo partly specified) | 3.43 | 28.6 | 18.2 | – | – | 82.5 | 91.5 | 31.1 | – | 22.9 | 34.5 | 32.8 | – | 39.9 | 23.5 | – | 22.6 | 28.4 | – | 75.2 |
| CCCCCCc1cc2cc(-c3cn4ccccc4n3)c(=O)oc2cc1O | 15.1 | 20.7 | > 100 | 50.7 | 34.5 | 34.1 | 24.4 | 20.9 | 15.7 | 20.6 | 50.9 | 4.76 | > 100 | 28.5 | > 36.9 | > 63.3 | 22.1 | 13.5 | – | – |
| CCOC(OCC)[C@@H]1C[C@@H]2N(O[C@H](OC3CCCC3(c3ccccc3)c3ccccc3)[C@H](OC(C)=O)[C@@]2(CC)Cc2ccc(OC)c(OC)c2)O1 (stereo partly specified) | > 100 | > 100 | > 100 | – | > 100 | > 100 | > 100 | > 100 | > 100 | > 100 | > 100 | > 100 | – | > 100 | > 100 | > 100 | > 100 | > 100 | – | – |
| COc1cc2c(c(OC)c1)C(=O)C(=O)C(CC1(C)OCCCO1)=C2 | 2.7 | 25.6 | 9.58 | 31.3 | 19.6 | 27.1 | 32.6 | 17 | 10.5 | 20.2 | 27.4 | 22 | 4.28 | 30.3 | 12.9 | > 29.9 | 18.1 | 13.1 | – | – |
